What all share (format): binding
One test deals with T1, TYK2 (Homo sapiens, UniProt P29597).
T1 construct: endogenous in cells; host or cells: Molt4 (ATCC CRL-1582) and Ramos (ATCC CRL-1596) cells; mixed lysate 1:2
The test can be described thus: Kinobeads assay with immunodetection, TYK2. To be noted: for IC50: Kinobeads assay, mixed Molt4/Ramos lysate, read-out: Inhibition values (IC50) Tyk2. As for the experimental part: (§1) Determination of the Effect of the Compounds According to the Invention on Janus Kinases (JAK Family) in Kinobeads™ Assays with Immunodetection of Kinases
(§2) The compounds of the present invention as described in the previous examples were tested in a Kinobeads™ assay as described for ZAP-70 (WO-A 2007/137867). Briefly, test compounds (at various concentrations) and the affinity matrix with the immobilized aminopyrido-pyrimidine ligand 24 were added to cell lysate aliquots and allowed to bind to the proteins in the lysate sample. After the incubation time the beads with captured proteins were separated from the lysate. Bound proteins were then eluted and the presence of JAK1, JAK2, JAK3 and TYK2 was detected and quantified using specific antibodies in a dot blot procedure and the Odyssey infrared detection system. Dose response curves for individual kinases were generated and IC50 values calculated. Kinobeads™ assays for ZAP-70 (WO-A 2007/137867) and for kinase selectivity profiling (WO-A 2006/134056) have been previously described.
(§3) The affinity matrix was washed two times with 15 mL of 1×DP buffer containing 0.2% NP40 (IGEPAL® CA-630, Sigma, #13021) and then resuspended in 1×DP buffer containing 0.2% NP40 (3% beads slurry).
(§4) 5×DP buffer: 250 mM Tris-HCl pH 7.4, 25% Glycerol, 7.5 mM MgCl2, 750 mM NaCl, 5 mM Na3VO4; filter the 5×DP buffer through a 0.22 μm filter and store in aliquots at −80° C. The 5×DP buffer is diluted with H2O to 1×DP buffer containing 1 mM DTT and 25 mM NaF.
(§5) Stock solutions of test compounds were prepared in DMSO. In a 96 well plate 30 μL solution of diluted test compounds at 5 mM in DMSO were prepared. Starting with this solution a 1:3 dilution series (9 steps) was prepared. For control experiments (no test compound) a buffer containing 2% DMSO was used.
(§6) Molt4 cells (ATCC catalogue number CRL-1582) and Ramos cells (ATCC catalogue number CRL-1596) were grown in 1 L Spinner flasks (Integra Biosciences, #182101) in suspension in RPMI 1640 medium (Invitrogen, #21875-034) supplemented with 10% Fetal Bovine Serum (Invitrogen) at a density between 0.15×10^6 and 1.2×10^6 cells/mL. Cells were harvested by centrifugation, washed once with 1×PBS buffer (Invitrogen, #14190-094) and cell pellets were frozen in liquid nitrogen and subsequently stored at −80° C. Cells were homogenized in a Potter S homogenizer in lysis buffer: 50 mM Tris-HCl, 0.8% NP40, 5% glycerol, 150 mM NaCl, 1.5 mM MgCl2, 25 mM NaF, 1 mM sodium vanadate, 1 mM DTT, pH 7.5. One complete EDTA-free tablet (protease inhibitor cocktail, Roche Diagnostics, 1873580) per 25 ml, buffer was added. The material was dounced 10 times using a mechanized POTTER S, transferred to 50 mL falcon tubes, incubated for 30 minutes on ice and spun down for 10 minutes at 20,000 g at 4° C. (10,000 rpm in Sorvall SLA600, precooled). The supernatant was transferred to an ultracentrifuge (UZ)-polycarbonate tube (Beckmann, 355654) and spun for 1 hour at 100.000 g at 4° C. (33.500 rpm in Ti50.2, precooled). The supernatant was transferred again to a fresh 50 mL falcon tube, the protein concentration was determined by a Bradford assay (BioRad) and samples containing 50 mg of protein per aliquot were prepared. The samples were immediately used for experiments or frozen in liquid nitrogen and stored frozen at −80° C.
(§7) Cell lysate (approximately 50 mg protein per plate) was thawed in a water bath at room temperature and then stored on ice. To the thawed cell lysate 1×DP 0.8% NP40 buffer containing protease inhibitors (1 tablet for 25 mL buffer; EDTA-free protease inhibitor cocktail; Roche Diagnostics 1873580) was added in order to reach a final protein concentration of 10 mg/mL total protein. The diluted cell lysate was stored on ice. Mixed Molt4/Ramos lysate was prepared by combining one volume of Molt4 lysate and two volumes of Ramos lysate (ratio 1:2). […]

In the next test the target is T2, JAK3 (Homo sapiens, UniProt P52333).
T2 construct: endogenous in cells; host or cells: Molt4 (ATCC CRL-1582) and Ramos (ATCC CRL-1596) cells; mixed lysate 1:2
T2 sequence (P52333 1-1124): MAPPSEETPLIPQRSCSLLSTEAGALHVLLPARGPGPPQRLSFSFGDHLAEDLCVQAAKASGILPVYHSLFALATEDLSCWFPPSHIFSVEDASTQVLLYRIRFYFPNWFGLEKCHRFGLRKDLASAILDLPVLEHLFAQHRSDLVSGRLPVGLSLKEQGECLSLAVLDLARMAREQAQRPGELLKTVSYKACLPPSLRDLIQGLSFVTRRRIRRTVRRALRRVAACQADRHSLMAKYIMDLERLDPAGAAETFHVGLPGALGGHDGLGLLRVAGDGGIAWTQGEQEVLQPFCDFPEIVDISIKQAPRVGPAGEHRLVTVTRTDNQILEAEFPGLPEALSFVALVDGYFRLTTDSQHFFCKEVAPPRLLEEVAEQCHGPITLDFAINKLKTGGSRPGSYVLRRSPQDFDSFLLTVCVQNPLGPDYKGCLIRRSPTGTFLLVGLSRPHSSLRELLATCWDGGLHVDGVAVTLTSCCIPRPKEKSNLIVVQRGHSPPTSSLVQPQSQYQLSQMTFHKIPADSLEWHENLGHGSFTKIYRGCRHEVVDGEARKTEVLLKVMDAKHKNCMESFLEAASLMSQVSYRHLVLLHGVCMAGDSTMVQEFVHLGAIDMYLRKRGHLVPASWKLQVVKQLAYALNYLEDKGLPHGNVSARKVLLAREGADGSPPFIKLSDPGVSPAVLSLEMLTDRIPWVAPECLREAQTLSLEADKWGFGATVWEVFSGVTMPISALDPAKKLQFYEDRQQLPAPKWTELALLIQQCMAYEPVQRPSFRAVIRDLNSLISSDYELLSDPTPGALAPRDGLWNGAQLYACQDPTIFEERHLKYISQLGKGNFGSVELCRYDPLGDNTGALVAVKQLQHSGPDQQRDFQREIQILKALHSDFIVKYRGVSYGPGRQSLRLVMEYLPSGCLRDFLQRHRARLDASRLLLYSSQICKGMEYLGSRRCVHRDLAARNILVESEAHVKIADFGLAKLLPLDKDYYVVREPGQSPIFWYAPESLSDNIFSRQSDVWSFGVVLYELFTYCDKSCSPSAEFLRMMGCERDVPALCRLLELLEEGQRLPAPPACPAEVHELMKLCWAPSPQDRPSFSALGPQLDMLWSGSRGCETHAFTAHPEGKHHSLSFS
The test can be described thus: Kinobeads assay with immunodetection, JAK3. To be noted: for IC50: Kinobeads assay, mixed Molt4/Ramos lysate, read-out: Inhibition values (IC50) JAK3. As for the experimental part:
as §1, §2, §3, §4, §5, §6, §7

In the next test the target is T3, JAK2 (Homo sapiens, UniProt O60674).
T3 construct: endogenous in cells; host or cells: Molt4 (ATCC CRL-1582) and Ramos (ATCC CRL-1596) cells; mixed lysate 1:2
The test can be described thus: Kinobeads assay with immunodetection, JAK2. To be noted: mixed Molt4/Ramos lysate, read-out: Inhibition values (IC50) JAK2. As for the experimental part:
as §1, §2, §3, §4, §5, §6, §7

For the next test, the target named is T4, JAK1 (Homo sapiens, UniProt P23458).
T4 construct: endogenous in cells; host or cells: Molt4 (ATCC CRL-1582) and Ramos (ATCC CRL-1596) cells; mixed lysate 1:2
The test can be described thus: Kinobeads assay with immunodetection, JAK1. Conditions: for IC50: Kinobeads assay, mixed Molt4/Ramos lysate, read-out: Inhibition values (IC50) JAK1. As for the experimental part:
as §1, §2, §3, §4, §5, §6, §7

Structures can show the parent of a compound that is named as a salt. Where only a bound is given, the exact number is not on record here.

T1 sequence (P29597 whole entry): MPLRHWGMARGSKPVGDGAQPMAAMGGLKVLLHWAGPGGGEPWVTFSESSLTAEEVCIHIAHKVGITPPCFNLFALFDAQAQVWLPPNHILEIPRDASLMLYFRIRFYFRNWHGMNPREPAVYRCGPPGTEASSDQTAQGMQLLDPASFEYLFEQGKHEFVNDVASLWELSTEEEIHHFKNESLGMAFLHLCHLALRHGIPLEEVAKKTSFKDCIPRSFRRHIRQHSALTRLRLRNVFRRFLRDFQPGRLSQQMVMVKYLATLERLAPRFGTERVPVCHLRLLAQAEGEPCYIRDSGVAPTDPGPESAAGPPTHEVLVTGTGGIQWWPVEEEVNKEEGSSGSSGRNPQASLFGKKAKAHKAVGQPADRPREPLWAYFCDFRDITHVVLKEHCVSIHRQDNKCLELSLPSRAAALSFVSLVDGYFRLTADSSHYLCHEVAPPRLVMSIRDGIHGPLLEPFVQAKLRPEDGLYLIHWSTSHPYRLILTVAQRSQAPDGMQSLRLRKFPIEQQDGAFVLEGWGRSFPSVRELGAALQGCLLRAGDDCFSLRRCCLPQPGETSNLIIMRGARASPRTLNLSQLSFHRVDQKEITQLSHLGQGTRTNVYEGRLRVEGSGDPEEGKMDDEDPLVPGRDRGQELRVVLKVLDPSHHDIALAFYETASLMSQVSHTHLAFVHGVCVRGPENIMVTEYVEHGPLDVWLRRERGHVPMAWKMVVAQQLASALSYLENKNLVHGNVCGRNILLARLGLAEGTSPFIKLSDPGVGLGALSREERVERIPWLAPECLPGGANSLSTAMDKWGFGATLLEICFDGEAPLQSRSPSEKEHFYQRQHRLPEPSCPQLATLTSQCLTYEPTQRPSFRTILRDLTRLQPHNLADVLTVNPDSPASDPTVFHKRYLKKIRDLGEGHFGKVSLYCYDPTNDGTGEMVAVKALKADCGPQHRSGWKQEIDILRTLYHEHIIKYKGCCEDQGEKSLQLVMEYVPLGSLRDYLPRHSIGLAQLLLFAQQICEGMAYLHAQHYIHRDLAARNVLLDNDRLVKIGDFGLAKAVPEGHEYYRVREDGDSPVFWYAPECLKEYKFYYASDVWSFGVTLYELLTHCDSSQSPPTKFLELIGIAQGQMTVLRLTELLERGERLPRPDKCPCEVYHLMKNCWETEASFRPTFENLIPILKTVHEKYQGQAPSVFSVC
T4 sequence (P23458 whole entry): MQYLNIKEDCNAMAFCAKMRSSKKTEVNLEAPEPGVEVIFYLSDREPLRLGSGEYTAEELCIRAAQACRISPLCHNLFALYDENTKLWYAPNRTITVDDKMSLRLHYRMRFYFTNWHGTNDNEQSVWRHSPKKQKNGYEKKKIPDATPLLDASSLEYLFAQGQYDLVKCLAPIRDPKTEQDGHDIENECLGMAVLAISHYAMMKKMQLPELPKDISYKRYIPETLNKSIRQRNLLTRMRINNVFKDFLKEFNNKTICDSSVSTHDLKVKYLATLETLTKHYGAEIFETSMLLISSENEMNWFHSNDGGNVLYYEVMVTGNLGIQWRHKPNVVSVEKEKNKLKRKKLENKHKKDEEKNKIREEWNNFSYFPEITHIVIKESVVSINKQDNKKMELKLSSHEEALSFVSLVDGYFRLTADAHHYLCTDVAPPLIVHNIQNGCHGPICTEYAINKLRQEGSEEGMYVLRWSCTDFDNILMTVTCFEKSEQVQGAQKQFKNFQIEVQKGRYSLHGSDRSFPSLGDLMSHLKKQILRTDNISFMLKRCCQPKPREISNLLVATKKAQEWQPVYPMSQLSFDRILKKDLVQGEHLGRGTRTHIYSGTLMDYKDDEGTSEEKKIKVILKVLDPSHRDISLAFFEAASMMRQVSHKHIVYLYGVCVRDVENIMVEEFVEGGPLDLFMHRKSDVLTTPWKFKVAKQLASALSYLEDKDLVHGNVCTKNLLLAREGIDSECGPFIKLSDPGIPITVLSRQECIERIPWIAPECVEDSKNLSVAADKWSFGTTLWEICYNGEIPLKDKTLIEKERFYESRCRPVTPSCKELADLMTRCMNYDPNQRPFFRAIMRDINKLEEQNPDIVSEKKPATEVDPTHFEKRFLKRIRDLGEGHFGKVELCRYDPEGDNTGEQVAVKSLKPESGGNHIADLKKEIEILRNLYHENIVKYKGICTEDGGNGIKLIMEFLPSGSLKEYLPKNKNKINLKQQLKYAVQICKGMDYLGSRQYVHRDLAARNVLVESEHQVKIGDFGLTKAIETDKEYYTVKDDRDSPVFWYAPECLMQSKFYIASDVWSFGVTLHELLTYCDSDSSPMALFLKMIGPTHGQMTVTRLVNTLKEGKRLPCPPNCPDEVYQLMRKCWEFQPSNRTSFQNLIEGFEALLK
T3 sequence (O60674 whole entry): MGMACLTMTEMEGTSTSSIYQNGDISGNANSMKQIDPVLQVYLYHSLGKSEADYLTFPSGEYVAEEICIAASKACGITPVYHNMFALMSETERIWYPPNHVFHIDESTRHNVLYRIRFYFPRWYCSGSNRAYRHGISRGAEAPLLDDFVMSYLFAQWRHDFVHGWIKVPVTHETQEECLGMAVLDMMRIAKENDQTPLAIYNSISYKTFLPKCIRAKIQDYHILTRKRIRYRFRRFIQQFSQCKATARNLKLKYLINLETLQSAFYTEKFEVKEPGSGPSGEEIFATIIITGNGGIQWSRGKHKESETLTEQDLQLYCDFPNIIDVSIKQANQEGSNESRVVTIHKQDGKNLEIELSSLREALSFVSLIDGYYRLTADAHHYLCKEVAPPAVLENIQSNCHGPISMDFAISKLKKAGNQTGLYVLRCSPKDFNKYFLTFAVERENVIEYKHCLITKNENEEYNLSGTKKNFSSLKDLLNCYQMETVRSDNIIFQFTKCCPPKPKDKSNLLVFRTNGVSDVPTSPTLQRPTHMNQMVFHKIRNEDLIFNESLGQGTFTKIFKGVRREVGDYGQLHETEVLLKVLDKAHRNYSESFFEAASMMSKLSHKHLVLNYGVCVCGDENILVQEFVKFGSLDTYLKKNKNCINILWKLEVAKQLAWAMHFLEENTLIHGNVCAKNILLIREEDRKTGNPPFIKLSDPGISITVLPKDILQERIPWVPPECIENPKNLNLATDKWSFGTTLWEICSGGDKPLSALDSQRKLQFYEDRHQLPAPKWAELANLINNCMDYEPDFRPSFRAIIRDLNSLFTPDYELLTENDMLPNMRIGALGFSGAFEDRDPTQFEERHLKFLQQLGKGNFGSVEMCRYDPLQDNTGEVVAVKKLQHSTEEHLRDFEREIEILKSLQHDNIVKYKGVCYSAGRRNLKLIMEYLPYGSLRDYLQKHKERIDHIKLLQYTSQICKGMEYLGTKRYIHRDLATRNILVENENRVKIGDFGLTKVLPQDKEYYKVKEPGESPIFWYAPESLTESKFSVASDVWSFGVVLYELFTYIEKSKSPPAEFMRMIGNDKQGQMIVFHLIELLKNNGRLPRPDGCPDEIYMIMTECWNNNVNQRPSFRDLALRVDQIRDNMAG

As to `CN(C)C(=O)Cn1cc(Nc2ncc(Cl)c(NC[C@H]3CCCN3S(C)(=O)=O)n2)cn1` [Example 68, (R)-2-(4-(5-chloro-4-((1-(methylsulfonyl)pyrrolidin-2-yl)methylamino)pyrimidin-2-ylamino)-1H-pyrazol-1-yl)-N,N-dimethylacetamide], the IC50 at TYK2, at JAK3, on JAK2 and on JAK1 was less than 100 nM throughout. The “Selectivity ratio over JAK2, Tyk2” value on TYK2 is on record as “Tyk2 = 13”.
As for `C=CC(=O)N1CCCC[C@@H]1CNc1nc(Nc2cnn(C)c2)ncc1Cl` [Example 41, (R)-1-(2-(((5-chloro-2-((1-methyl-1H-pyrazol-4-yl)amino)pyrimidin-4-yl)amino)methyl)piperidin-1-yl)prop-2-en-1-one], the concentration for half-maximal inhibition (IC50) at TYK2, at JAK3, on JAK2 and at JAK1 was 100 to 1000 nM throughout. The “Selectivity ratio over JAK2, Tyk2” value on TYK2 is “Tyk2 = 6”.
Turning to `Cn1cc(Nc2ncc(Cl)c(NC[C@H]3CCCN3S(=O)(=O)C3CC3)n2)cn1` [Example 98, (R)-5-chloro-N^4-((1-(cyclopropylsulfonyl)pyrrolidin-2-yl)methyl)-N^2-(1-methyl-1H-pyrazol-4-yl)pyrimidine-2,4-diamine], the 50% inhibitory concentration (IC50) on TYK2 was less than 100 nM; at JAK3, less than 100 nM; at JAK2 it was 100 to 1000 nM; at JAK1 it was less than 100 nM. The “Selectivity ratio over JAK2, JAK3” value at JAK3 was “JAK3 = 53”.
As to `CS(=O)(=O)N1CCC[C@H]1CNc1nc(Nc2cnn(CCO)c2)ncc1Cl` [Example 13, (S)-2-(4-((5-chloro-4-(((1-(methylsulfonyl)pyrrolidin-2-yl)methyl)amino)pyrimidin-2-yl)amino)-1H-pyrazol-1-yl)ethanol], the IC50 at TYK2 is less than 100 nM; on JAK3 it was less than 100 nM; at JAK2, 100 to 1000 nM; on JAK1, less than 100 nM. In addition, the “Selectivity ratio over JAK2, JAK1” value at JAK1 is listed as “JAK1 = 13”.
Regarding `Cn1cc(Nc2ncc(Cl)c(NC[C@H]3CCCN3C(=O)NC3CC3)n2)cn1` [Example 89, (R)-2-(((5-chloro-2-((1-methyl-1H-pyrazol-4-yl)amino)pyrimidin-4-yl)amino)methyl)-N-cyclopropylpyrrolidine-1-carboxamide], the IC50 on TYK2 is less than 100 nM; on JAK3 it was 100 to 1000 nM; at JAK2, 100 to 1000 nM; on JAK1, less than 100 nM. Besides, on TYK2, the “Selectivity ratio over JAK2, Tyk2” value is on record as “Tyk2 = 5”.
Turning to `Cn1cc(Nc2ncc(Cl)c(NC[C@@H]3CCCN(C(=O)CCC#N)C3)n2)cn1` [Example 136, (S)-4-(3-(((5-chloro-2-((1-methyl-1H-pyrazol-4-yl)amino)pyrimidin-4-yl)amino)methyl)piperidin-1-yl)-4-oxobutanenitrile], the IC50 was 100 to 1000 nM on TYK2, less than 100 nM at JAK3, 100 to 1000 nM on JAK2 and 100 to 1000 nM at JAK1. Further, the “Selectivity ratio over JAK2, JAK3” value at JAK3 was “JAK3 = 78”.
On to `Cn1cc(Nc2ncc(F)c(NC[C@@H]3CCCN3)n2)cn1` [Example 71, (S)-5-fluoro-N^2-(1-methyl-1H-pyrazol-4-yl)-N^4-(pyrrolidin-2-ylmethyl)pyrimidine-2,4-diamine Hydrochloride], for which the IC50 at TYK2 was 1000 to 10000 nM; at JAK3 it was more than 10000 nM; on JAK2, more than 10000 nM; at JAK1 it was 1000 to 10000 nM.
Regarding `Cc1cnc(Nc2cnn(C)c2)nc1NC[C@@H]1CCCN1S(C)(=O)=O` [Example 77, (S)-5-methyl-N^2-(1-methyl-1H-pyrazol-4-yl)-N^4-((1-(methylsulfonyl)pyrrolidin-2-yl)methyl)pyrimidine-2,4-diamine], the IC50 on TYK2 is less than 100 nM; at JAK3 it was less than 100 nM; on JAK2, 100 to 1000 nM; at JAK1, less than 100 nM. Besides, at JAK1, the “Selectivity ratio over JAK2, JAK1” value was “JAK1 = 28”.
Regarding `Cn1cc(Nc2ncc(Cl)c(NC[C@H]3CCCN3C3CCS(=O)(=O)C3)n2)cn1` (stereo partly drawn) [Example 115, 3-((R)-2-(((5-chloro-2-((1-methyl-1H-pyrazol-4-yl)amino)pyrimidin-4-yl)amino)methyl)pyrrolidin-1-yl)tetrahydrothiophene 1,1-dioxide], the IC50 on TYK2 is less than 100 nM; on JAK3 it was less than 100 nM; on JAK2, 100 to 1000 nM; at JAK1 it was less than 100 nM. For the same compound, the “Selectivity ratio over JAK2, Tyk2” value on TYK2 is “Tyk2 = 68”.
Consider `Cn1cc(Nc2ncc(F)c(NC[C@H]3CCCN3C(=O)CC#N)n2)cn1` [Example 113, (R)-3-(2-(((5-fluoro-2-((1-methyl-1H-pyrazol-4-yl)amino)pyrimidin-4-yl)amino)methyl)pyrrolidin-1-yl)-3-oxopropanenitrile], for which the IC50 was less than 100 nM on TYK2, 100 to 1000 nM on JAK3, 1000 to 10000 nM on JAK2 and less than 100 nM on JAK1. Also, the “Selectivity ratio over JAK2, Tyk2” value on TYK2 is “Tyk2 = 170”.
Regarding `CC(=O)N1CC[C@H](CNc2nc(Nc3cnn(C)c3)ncc2Cl)C1` [Example 20, (R)-1-(3-(((5-chloro-2-((1-methyl-1H-pyrazol-4-yl)amino)pyrimidin-4-yl)amino)methyl)pyrrolidin-1-yl)ethanone], the IC50 on TYK2 is 100 to 1000 nM; on JAK3, 1000 to 10000 nM; on JAK2 it was 1000 to 10000 nM; at JAK1 it was 100 to 1000 nM. In addition, the “Selectivity ratio over JAK2, JAK1” value at JAK1 is on record as “JAK1 = 42”.

For the origin of these results see patent publication US20150005281A1, “PYRIMIDINE-2,4-DIAMINE DERIVATIVES AS KINASE INHIBITORS” (Cellzome Limited, priority 2011, published 2015).
